These results are taken from patent US7288558B2, “Pharmaceutical composition for treatment for urinary diseases comprising LPA receptor regulator” (Ono Pharmaceuticals Co., Ltd., priority 2001, dated 2007).

Test [1] has as its system urethra. The experiment in a line: Measurement of urethral pressure by drugs in pithed male rats, i.v. Format: in vivo, rat. The arrangement: key to urethral pressure: ↑: increase; (—): no effect. To be noted: for urethral pressure / urethral pressure (increase): male pithed rats; for urethral pressure: class symbol; for intraurethral pressure: 1 mg/kg i.v. As for the experimental part: Male CD(SD)IGS rats (Charles River Japan Inc., 8-9 week-old in use) were anesthetized by intraperitoneal administration of sodium pentbarbital (50 mg/kg). After incision of cervical median, broncho cannula and arterial catheter were inserted. The measurement of blood pressure was started via arterial catheter and subsequently a stainless-steel rod was inserted into the spinal column through the orbit and foramen magnum for the destruction of the spinal cord. The broncho cannula was connected to the artificial breathing device for small animals (SN-480-7, Shinano, Tokyo, Japan) immediately and the animals were ventilated artificially with room air in a tidal volume of 6 mL/kg body weight at a rate of 70 breaths/min. After confirming the gentle decrease of blood pressure and stabilization of the blood pressure at the low level indicating a success of destruction of the spinal cord, intravenous catheter was inserted into femoral vein for drug administration. Urinary bladder was exposed by incision of hypogastrium median and urethra was tied off in the vicinity of pubic bone. Urethra catheter was inserted into urethra through dome of urinary bladder and fixed by ligation at the bladder neck. Urethra catheter was connected to the pressure transducer and urethral pressure was measured. Subsequently, urethral pressure was adjusted about 20 mmHg and left for about 1 hour. After it was confirmed stability of urethral pressure, and subsequently 10 μg/kg/0.5 ml phenylephrine was administrated and it was confirmed that urethral pressure increased. Various drugs included 18:3-LPA were estimated 0.5 ml/kg in the same way.

The subject of test [2] is isolated urethral preparations. The experiment in a line: Measurement of urethra contraction, isolated female rat urethral preparations (Magnus tube). The class given is cell-based. The text has this:
After sacrificing female CD(SD)IGS rats (Charles River Japan Inc., 8-9 week-old in use) by blowing heads and exsanguinating from jugular vein, urethra under pubis was isolated carefully and soaked in Krebs-Henseleit solution (112 mmol/L NaCl, 5.9 mmol/L KCl, 2.0 mmol/L CaCl2, 1.2 mmol/L MgCl2, 1.2 mmol/L NaH2PO4, 25.0 mmol/L NaHCO3, 11.5 mmol/L glucose) immediately. Urethra part was cut from isolated sample, and was dissected in flat and subsequently was cut parallel to circular muscle. Thus, 2-3 strips of sample that are 3-4 mm long by 2-3 mm wide were made.
(§1) The made samples were suspended in the Magnus tube (volume: 10 mL) filled by Krebs-Henseleit solution (vented by 37±1° C., mixed gas [95% O2+5% CO2]). The samples were added about 0.5 g tension and stabilized for 60 min, and subsequently the contractile activity was recorded on recorder (linearcoder WR3320: GRAPHTEC CORP., thermal pen-writing recorder RJG-4128: Nihon Kohden Ltd) via a pressure amplifier (AP-641G, AP-601G, Nihon Kohden Ltd) from isometric transducer (Force displacement transducer) (FD pick-up TB-611T: Nihon Kohden Ltd).
The contractile reaction of control was given by stimulation of high concentration KCl solution (solution replaced all NaCl with KCl). By the addition of LPA and phenylephrine (comparison compound: α agonist) cumulatively, dose-dependency of urethra contraction was measured. […]

For a further test, the system named is colon and ileum. To be noted: rats, literature; cited from earlier work.
Another test concerns micturition. The experiment in a line: Cystometry in anesthetized female rats with intravenous infusion of LPA. The class given is in vivo, rat. To be noted: infusion rate 15 mg/kg/hr/3 mL i.v. The text has this: Female CD(Sprague-Dawley)IGS rats (Charles River Japan Inc., 12 to 13 weeks old in use) were anesthetized with an s.c. administration of urethane (1.2 g/kg) and placed in a supine position and the bladder and proximal urethra were exposed through a midline abdominal incision. The ureters were tied with silk suture distally and cut. Bladder was exposed and a polyethylene catheter (JMS cutdown tube, C3) was inserted through the bladder dome and secured with a ligature. The other side of the catheter was connected to a pressure transducer through two T tubes to measure intravesical pressure. Another side of T tubes was connected to an infusion pump for performing cystometrograms (the other side of T tube was connected to a syringe). The carotid artery was cannulated to measure blood pressure and the jugular vein was cannulated to administration of the test compounds. Rats in which the above mentioned operation was performed were placed to 37° C. thermostat plate and citric acid solution (pH4.0) or saline were infused into bladder at the rate of 2.85 mL/hr. After cystometrograms show rhythmic reflex saline was infused via jugular vein at the infusion rate of 3 mL/kg/hr. After an appropriate time 18:3-LPA prepared with 5 mg/mL was infused at the infusion rate of 3 mL/kg/hr. After the 18:3-LPA infusion was stopped saline was infused again. […]

Test [3] deals with isolated prostatic preparations. The experiment in a line: Contractile test of isolated prostate, male rats (Magnus tube). The class given is cell-based. To be noted: isolated male rat prostate.
From the text: After sacrificing male CD(SD)IGS rats (Charles River Japan Inc., 8-9 week-old in use) by blowing heads and exsanguinating from jugular vein, prostate was isolated and soaked in iced Krebs-Henseleit solution (112 mmol/L NaCl, 5.9 mmol/L KCl, 2.0 mmol/L CaCl2, 1.2 mmol/L MgCl2, 1.2 mmol/L NaH2PO4, 25.0 mmol/L NaHCO3, 11.5 mmol/L glucose) immediately. Prostate was separated right-and-left part from isolated sample, fatty tissue was removed and longitudinal strips (2 to 3 strips) were isolated from a prostate lobe.
as §1, with “were” for “were added about 0.5 g tension and”, “min and added about 0.5-1 g tension,” for “min,”, “AP-601G:” for “AP-601G,”, “Ltd). 0.01-10 μM phenylephrine was added in Magnus tube. The contraction by 10 μM phenylephrine is the contractile reaction of control. […] After the samples were suspended, it was washed over and over, opportunity. […]” for “Ltd).”

In test [4] the test system is urethra. Nature of the test: Rat urethral pressure in vivo after intravenous compound A. To be noted: male rats, 3 mg/kg i.v. The text has this: Male CD(SD)IGS rats (Charles River Japan Inc., 8-9 week-old in use) were anesthetized by subcutaneous administration of 1.2 g/kg urethane. After incision of cervical median, jugular vein catheter for administration of compound and arterial catheter for measurement of blood pressure were inserted. Subsequently, an incision in the hypogastrium median was made and urethra was tied off in the vicinity of pubic bone. Urethral catheter was inserted into urethra by cutting open dome of urinary bladder and fixed by ligation in of the bladder neck. Another end of urethral catheter was connected to the pressure transducer and urethral pressure was measured. Urethral pressure was adjusted about 20 mmHg and left at rest until it was stabilized (for about 20 minutes). Subsequently, compound A was administrated intravenously and blood pressure and urethral pressure were measured for 20 minutes, and then in order to monitor the base-line value of the intraurethral pressure 1 mL of pentobarbital was intraveniously injected. After the intraurethral pressure was decreased to the prolonged plateau, it was estimated as a base-line value. Compound A was administrated intraveniously (3 mg/kg, 1 mL/kg). Vehicle was confirmed as 10% DMSO-90% rat plasma solution. […]

Another test has as its target EDG-2 (Homo sapiens, UniProt Q92633). To be noted: EDG-2 over-expressed cell, specification of WO01/60819; cited from earlier work.
Test [5] concerns LPA dependent contraction in rat isolated urethra. Nature of the test: Inhibitory activity for LPA dependent contraction in rat isolated urethra. Format: cell-based. To be noted: isolated male rat urethra, 10 μM LPA. The text has this: Male CD(SD)IGS rats (Charles River Japan Inc., 8-9 week-old in use) anesthetized by diethyl ether were sacrificed by taking blood from the descending aorta, and subsequently urethra under pubis was isolated with urinary bladder and vesicular gland carefully and soaked in Krebs-Henseleit solution (112 mmol/L NaCl, 5.9 mmol/L KCl, 2.0 mmol/L CaCl2, 1.2 mmol/L MgCl2, 1.2 mmol/L NaH2PO4, 25.0 mmol/L NaHCO3, 11.5 mmol/L glucose) immediately. Urethra was cut from extracted sample and was dissected on the side of abdominal in flat with scissors for ophthalmic surgery. Thus, the strip of sample that are 3-4 mm long by 2-3 mm wide was made. […] The samples were added about 0.5 g tension and stabilized for 60 min, and subsequently the contractile activity was recorded on recorder (linearcoder WR3320: GRAPHTEC CORP., thermal pen-writing recorder RJG-4128: Nihon Kohden Ltd) via a pressure amplifier (AP-641G, AP-601G, Nihon Kohden Ltd) from Force displacement transducer (FD pick-up TB-611T: Nihon Kohden Ltd). […]
In other words, the isolated urethra was stimulated repeatedly by 10 μM LPA until a constant response was attained. […] Then the urethral contraction was monitored (post value). The inhibitory activity of compound A was calculated as the inhibition (%)={1-(post value)/(pre value)}×100. […]

SMILES strings stand for the structures. pIC50: −log10 of the molar value.

Chain of EDG-2 (Q92633 whole entry): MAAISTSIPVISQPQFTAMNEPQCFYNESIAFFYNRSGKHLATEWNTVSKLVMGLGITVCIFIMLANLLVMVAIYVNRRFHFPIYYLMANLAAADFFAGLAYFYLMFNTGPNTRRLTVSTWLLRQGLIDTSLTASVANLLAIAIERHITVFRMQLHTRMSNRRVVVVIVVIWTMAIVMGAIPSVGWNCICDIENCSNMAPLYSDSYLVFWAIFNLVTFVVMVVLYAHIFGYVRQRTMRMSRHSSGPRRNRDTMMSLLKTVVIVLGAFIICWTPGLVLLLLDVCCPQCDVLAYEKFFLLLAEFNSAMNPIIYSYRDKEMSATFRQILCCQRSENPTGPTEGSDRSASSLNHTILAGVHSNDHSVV

Turning to `CC/C=C\C/C=C\C/C=C\CCCCCCCC(=O)OCC(O)CO` (centres unmarked) [1-monolinolenoyl (18:3)-glycerol], the urethral pressure entry in the test on urethra [1] (dose 1 mg/kg i.v.) was “—”. In addition, the intraurethral pressure result with urethra [1] (pithed rat, in words) is “hardly increase”.
With `CC/C=C\C/C=C\C/C=C\CCCCCCCC(=O)OC[C@@H](O)COP(=O)(O)O` [18:3-LPA, 1-Linolenoyl lysophosphatidic acid], the “desensitization of urethral contraction” value in test [2] is reported as “desensitization was not caused”. For the same molecule, in test [2] (cumulative addition, FIG. 1), the “intensity of contraction of urethra compared with phenylephrine” value was “more potent”. Moreover, the results for the “urethral pressure (increase)” value in the test on urethra [1] (dose 10 μg/kg i.v.), in the test with urethra [1] (dose 100 μg/kg i.v.) and with urethra [1] (dose 1 mg/kg i.v.) were 3.0 mmHg, 9.0 mmHg and 15.5 mmHg, respectively. Further, the “intraurethral pressure, dose dependency” value in the test with urethra [1] (pithed rat, intravenous injection, in words) is given as “increased the intraurethral pressure in a dose-dependent manner”. The “activity for the contraction of colon and ileum” value (“activity for the contraction” for short) with colon and ileum is recorded as “most potent activity”. In the test with micturition, the “micturition pressure versus infusion of saline” value is given as “increased”. Further, in the test on micturition (FIG. 6), the “intercontraction interval versus saline infusion” value is “shorter”. The “desensitization of prostate contraction” value in test [3] is recorded as “desensitization was caused”. For the same molecule, the “contraction of isolated prostate” value in test [3] (organ bath in vitro, FIG. 2) is “contracts isolated urethra and prostate”.
With `CCCCCCCCCCCCCCCC(=O)OCC(O)COP(=O)(O)O` (centres unmarked) [(16:0)-LPA, 1-palmitoyl lysophosphatidic acid], the “activity for the contraction” value with colon and ileum was “also have the activity”.
As to `CCCCC/C=C\C/C=C\CCCCCCCC(=O)OC[C@@H](O)COP(=O)(O)O` [(18:2)-LPA, 1-linoleoyl lysophosphatidic acid], the “activity for the contraction” value in the test with colon and ileum is “also have the activity”.
Regarding `CNC[C@H](O)c1cccc(O)c1` [L-phenylephrine], the “urethral pressure (increase)” value with urethra [1] (dose 10 μg/kg i.v.) was found to be 7.5 mmHg.
As to `CC/C=C\C/C=C\C/C=C\CCCCCCCC(=O)OC[C@@H](O)COP(=O)([O-])OCC[N+](C)(C)C` [LPC (18:3), 1-linolenoyl (18:3)-LPC (lysophosphatidyl choline)], the urethral pressure result with urethra [1] (dose 1 mg/kg i.v.) is reported as “—”. Moreover, the intraurethral pressure entry in the test with urethra [1] (pithed rat, in words) was “hardly increase”.
For the molecule `COC(=O)CCSCc1ccc(-c2onc(C)c2NC(=O)OC(C)c2ccccc2Cl)cc1` (centres unmarked) [compound A, methyl 3-({4-[4-({[1-(2-chlorophenyl)ethoxy]carbonyl}amino)-3-methyl-5-isoxazolyl]benzyl}sulfanyl)propanoate], the “maximal amounts of the decreasing intraurethral pressure, of an absolute value (pressure before injection minus base-line value)” value in the test with urethra [4] is on record as “about 50%”. For the same molecule, the intraurethral pressure entry with urethra [4] (urethane anesthesia, versus vehicle, FIG. 5) is reported as “greatly decreased”. In addition, the “LPA receptor (EDG-2) antagonistic activity” value at EDG-2 is on record as “potent EDG-2 antagonistic activity”. Also, the pIC50 in test [5] (0.5 h, 30 min incubation at 37° C., read-out: 50% inhibitory concentration (IC50) for urethral contraction by LPA) was 7.15. Moreover, the “inhibition of urethral contraction by LPA” value in test [5] (in words) is on record as “inhibited the urethral contraction by LPA, dose-dependently”.
